Assay results: patent publication US20240124460A1, “METHODS AND COMPOSITIONS FOR TARGETED PROTEIN DEGRADATION” (Ranok Therapeutics (Hangzhou) Co. Ltd., priority 2020, published 2024)

What was measured:
[1] = tested on: U-87 MG human glioblastoma; test: U87 MG CCK-8 proliferation assay; type: cell-based; conditions: Homo sapiens, U-87 MG, 72 h, U-87 MG cells, read-out: U87MG CCK-8
In short: (§1)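 Cells grown per ATCC recommendations were treated with 3-fold serial compound dilutions from 20 μM to 1.02 nM. CCK-8 absorbance was converted to % inhibition against DMSO-treated cells, with cell-free medium containing DMSO as the blank.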

HSP90α protein [2] = target: T1, HSP90α protein (Homo sapiens, UniProt P07900); test: HSP90α-binding FP (FITC) assay; conditions: FP competition with FITC-geldanamycin
T1 construct: purchased BPS Bioscience #50298
Experimental: Binding of test compounds to HSP90α protein was measured by fluorescent polarization (FP) using the HSP90α (N-terminal) Assay Kit (BPS Bioscience, #50298), following the manufacturer's instructions, except as noted. Fluorescently labeled HSP90-binding compounds, either the provided FITC-geldanamycin (5 nM final concentration) or RNK04010, a triazolone-based HSP90 binding small molecule labeled with BODIPY through a piperazine-phenyl linker (5 nM final concentration) were employed. A 2.5-fold serial dilution of each test compound ranging from 20 μM to 5.2 nM was assayed for binding to HSP90α. After the final step of adding HSP90α protein to each assay well, plates were mixed by brief shaking, incubated at 25° C. for 120 min for FITC-geldanamycin or 300 min for RNK04010, and fluorescence was measured using a PerkinElmer EnVision Plate Reader.

[3] = tested on: MV-4-11 human acute myeloid leukemia; test: MV-4-11 CCK-8 proliferation assay; type: cell-based; conditions: Homo sapiens, MV4-11; MV-4-11 cells, 72 hr
In short: as §1

ERBB2 = ERBB2 (HER2) flow cytometry protein degradation assay in BT-474 cells; type: cell-based, human; conditions: DC50, BT-474 cells, 24 hr
Experimental: To analyze total ERBB2 expression by flow cytometry, cells were detached with trypsin, washed, counted and treated with 10 μl/10^6 cells PE-conjugated, anti-ERBB2 monoclonal antibody (R&D Systems, #FAB1129P) for 30 min at 25° C. in dark. Cells were then washed, resuspended in 200 μl 1% paraformaldehyde and analyzed by flow cytometry.
% Inhibition=100−(D−B)/(S−B)*100%. • S: Fluorescence intensity of cells with antibody • D: Fluorescence intensity of compound-treated cells with antibody • B: Fluorescence intensity of cells without antibody

HSP90α protein [4] = target: T1, HSP90α protein; test: HSP90α-binding FP (BODIPY) assay; conditions: FP competition with BODIPY-labeled RNK04010
In short: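 Fluorescence polarization measured competition with N-terminal human HSP90α, using either FITC-geldanamycin or BODIPY-labelled triazolone RNK04010 as tracer (5 nM final each). Compounds were tested in 2.5-fold dilutions from 20 μM to 5.2 nM, with incubation at 25 °C for 120 min (FITC) or 300 min (BODIPY).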

MAPK7 = MAPK7 (Homo sapiens, UniProt Q13164); test: MAPK7 Western blot protein degradation assay in U-87 MG cells; type: cell-based; design: U-87 MG human glioblastoma cells, which express MAPK7; endogenous in cells; host or cells: U-87 MG; conditions: 48 hr
Experimental: U-87 MG human glioblastoma cells were seeded in 6- or 12-well tissue culture plates, and after 1 hr, test compounds were added at various concentrations and incubated at 37° C./5% CO2 for 48 hr. Cells were then washed with cold PBS, aspirated and cold RIPA buffer containing a protease/phosphatase inhibitor cocktail was added to lyse cells. After centrifugation, the total protein concentrations of cell lysates were determined using the BCA protein assay. Samples were normalized for equivalent protein concentrations, 5×SDS-PAGE loading buffer added and denatured at 100° C. for 10 min. 20 μl of each sample/well was loaded on a SDS-PAGE gel and electrophoresed for 20 min at 80 V, then 120 V for 1.5 hr. Gels were then electroblotted to nitrocellulose membranes using a wet-transfer method at 250 mA for 2.5 hr. Membranes were incubated with blocking buffer for 1 hr and washed 3 times with TBST for 5 min. Membranes were then incubated with anti-MAPK7 (anti-ERK5; Cell Signaling Technology, #12950) and anti-3-Actin (Cell Signaling Technology, #3700) monoclonal antibodies diluted in blocking buffer at 4° C. overnight per the manufacturer's recommendations. After washing 3 times, blots were incubated with appropriately labeled secondary antibodies for 1 hr at room temperature and washed again. Fluorescence imaging and quantitation was performed using a LI-COR Odyssey. Results was analyzed using GraphPad Prism 7 software.

Sequence of MAPK7 (Q13164 whole entry): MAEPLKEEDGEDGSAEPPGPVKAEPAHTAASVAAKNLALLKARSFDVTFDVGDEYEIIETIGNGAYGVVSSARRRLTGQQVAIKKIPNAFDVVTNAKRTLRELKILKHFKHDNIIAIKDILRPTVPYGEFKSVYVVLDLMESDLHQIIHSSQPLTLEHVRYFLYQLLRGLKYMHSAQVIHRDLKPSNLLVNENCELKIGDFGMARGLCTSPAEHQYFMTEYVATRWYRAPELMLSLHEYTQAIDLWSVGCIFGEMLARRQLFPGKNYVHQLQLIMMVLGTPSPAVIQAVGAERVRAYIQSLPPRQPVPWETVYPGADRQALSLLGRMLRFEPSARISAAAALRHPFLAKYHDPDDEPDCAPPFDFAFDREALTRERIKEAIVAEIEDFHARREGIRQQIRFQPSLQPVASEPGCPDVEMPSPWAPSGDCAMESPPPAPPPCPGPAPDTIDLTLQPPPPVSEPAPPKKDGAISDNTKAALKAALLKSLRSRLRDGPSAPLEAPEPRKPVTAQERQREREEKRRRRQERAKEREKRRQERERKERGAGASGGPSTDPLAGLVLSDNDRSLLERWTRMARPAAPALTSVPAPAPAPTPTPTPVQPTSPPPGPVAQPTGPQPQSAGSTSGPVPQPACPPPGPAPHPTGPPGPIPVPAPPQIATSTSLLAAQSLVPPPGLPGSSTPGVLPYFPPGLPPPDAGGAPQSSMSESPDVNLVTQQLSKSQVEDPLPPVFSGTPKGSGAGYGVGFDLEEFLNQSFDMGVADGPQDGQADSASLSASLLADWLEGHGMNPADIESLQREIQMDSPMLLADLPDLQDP

Row | Compound | EC50 [1] | IC50 (HSP90α protein [2]) | EC50 [3] | ERBB2 degradation (ERBB2) | IC50 (HSP90α protein [4]) | MAPK7 degradation (30 nM) (MAPK7) | MAPK7 degradation (100 nM) (MAPK7) | MAPK7 degradation (300 nM) (MAPK7) | MAPK7 degradation (1000 nM) (MAPK7)
1 | CCOc1cc(N2CCC(C(=O)NCCc3ccc(-n4c(O)nnc4-c4cc(C(C)C)c(O)cc4O)cc3)CC2)ccc1Nc1ncc2c(n1)N(C)c1ccccc1C(=O)N2C [Compound 008, N-(4-(3-(2,4-dihydroxy-5-isopropylphenyl)-5-hydroxy-4H-1,2,4-triazol-4-yl)phenethyl)-1-(4-((5,11-dimethyl-6-oxo-6,11-dihydro-5H-benzo[e]pyrimido[5,4-b][1,4]diazepin-2-yl)amino)-3-ethoxyphenyl)piperidine-4-carboxamide] | 100 to 1000 nM | 100 to 1000 nM | < 100 nM |  |  |  |  |  | 
2 | CCOc1cc(N2CCC(C(=O)NCC3CCN(C(=O)C4CCN(Cc5ccc(-n6c(O)nnc6-c6cc(CC)c(O)cc6O)cc5)CC4)CC3)CC2)ccc1Nc1ncc2c(n1)N(C)c1ccccc1C(=O)N2C [Compound 011, 1-(4-((5,11-dimethyl-6-oxo-6,11-dihydro-5H-benzo[e]pyrimido[5,4-b][1,4]diazepin-2-yl)amino)-3-ethoxyphenyl)-N-((1-(1-(4-(3-(5-ethyl-2,4-dihydroxyphenyl)-5-hydroxy-4H-1,2,4-triazol-4-yl)benzyl)piperidine-4-carbonyl)piperidin-4-yl)methyl)piperidine-4-carboxamide] | > 1000 nM | 100 to 1000 nM | 100 to 1000 nM |  |  |  |  |  | 
3 | CCOc1cc(N2CCC(C(=O)NCC3CCN(C(=O)C4CCN(Cc5ccc(-n6c(O)nnc6-c6cc(CC)c(O)cc6O)cc5)CC4)C3)CC2)ccc1Nc1ncc2c(n1)N(C)c1ccccc1C(=O)N2C (stereo not shown) [Compound 012, 1-(4-((5,11-dimethyl-6-oxo-6,11-dihydro-5H-benzo[e]pyrimido[5,4-b][1,4]diazepin-2-yl)amino)-3-ethoxyphenyl)-N-((1-(1-(4-(3-(5-ethyl-2,4-dihydroxyphenyl)-5-hydroxy-4H-1,2,4-triazol-4-yl)benzyl)piperidine-4-carbonyl)pyrrolidin-3-yl)methyl)piperidine-4-carboxamide] | > 1000 nM | 100 to 1000 nM | 100 to 1000 nM |  |  |  |  |  | 
4 | CCOc1cc(N2CCC(C(=O)NCCOCCOc3ccc(-n4c(O)nnc4-c4cc(C(C)C)c(O)cc4O)cc3)CC2)ccc1Nc1ncc2c(n1)N(C)c1ccccc1C(=O)N2C [Compound 015, N-(2-(2-(4-(3-(2,4-dihydroxy-5-isopropylphenyl)-5-hydroxy-4H-1,2,4-triazol-4-yl)phenoxy)ethoxy)ethyl)-1-(4-((5,11-dimethyl-6-oxo-6,11-dihydro-5H-benzo[e]pyrimido[5,4-b][1,4]diazepin-2-yl)amino)-3-ethoxyphenyl)piperidine-4-carboxamide] | 100 to 1000 nM | 100 to 1000 nM | < 100 nM |  |  |  |  |  | 
5 | CCOc1cc(N2CCC(C(=O)NCCOCCOCCOc3ccc(-n4c(O)nnc4-c4cc(C(C)C)c(O)cc4O)cc3)CC2)ccc1Nc1ncc2c(n1)N(C)c1ccccc1C(=O)N2C [Compound 016, N-(2-(2-(2-(4-(3-(2,4-dihydroxy-5-isopropylphenyl)-5-hydroxy-4H-1,2,4-triazol-4-yl)phenoxy)ethoxy)ethoxy)ethyl)-1-(4-((5,11-dimethyl-6-oxo-6,11-dihydro-5H-benzo[e]pyrimido[5,4-b][1,4]diazepin-2-yl)amino)-3-ethoxyphenyl)piperidine-4-carboxamide] | 100 to 1000 nM | 100 to 1000 nM | < 100 nM |  |  |  |  |  | 
6 | CCOc1cc(N2CCC(C(=O)NCCOCCOCCOc3ccc(-n4c(O)nnc4-c4cc(CC)c(O)cc4O)cc3)CC2)ccc1Nc1ncc2c(n1)N(C)c1ccccc1C(=O)N2C [Compound 017, 1-(4-((5,11-dimethyl-6-oxo-6,11-dihydro-5H-benzo[e]pyrimido[5,4-b][1,4]diazepin-2-yl)amino)-3-ethoxyphenyl)-N-(2-(2-(2-(4-(3-(5-ethyl-2,4-dihydroxyphenyl)-5-hydroxy-4H-1,2,4-triazol-4-yl)phenoxy)ethoxy)ethoxy)ethyl)piperidine-4-carboxamide] | > 1000 nM | 100 to 1000 nM | < 100 nM |  |  |  |  |  | 
7 | CCOc1cc(N2CCC(C(=O)N3CCC(CN4CCN(Cc5ccc(-n6c(C(=O)NCC(F)(F)F)nnc6-c6cc(CC)c(O)cc6O)cc5)CC4)CC3)CC2)ccc1Nc1ncc2c(n1)N(C)c1ccccc1C(=O)N2C [Compound 022, 4-(4-((4-((1-(1-(4-((5,11-dimethyl-6-oxo-6,11-dihydro-5H-benzo[e]pyrimido[5,4-b][1,4]diazepin-2-yl)amino)-3-ethoxyphenyl)piperidine-4-carbonyl)piperidin-4-yl)methyl)piperazin-1-yl)methyl)phenyl)-5-(5-ethyl-2,4-dihydroxyphenyl)-N-(2,2,2-trifluoroethyl)-4H-1,2,4-triazole-3-carboxamide] | 100 to 1000 nM |  | < 100 nM | B (DC50 = 100-1000 nM) | 100 to 1000 nM | C (< 33% degradation) | C (< 33% degradation) | B (33-66% degradation) | A (>66% degradation)
8 | CCOc1cc(N2CCC(C(=O)NCc3ccc(-n4c(O)nnc4-c4cc(C(C)C)c(O)cc4O)cc3F)CC2)ccc1Nc1ncc2c(n1)N(C)c1ccccc1C(=O)N2C [Compound 036, N-(4-(3-(2,4-dihydroxy-5-isopropylphenyl)-5-hydroxy-4H-1,2,4-triazol-4-yl)-2-fluorobenzyl)-1-(4-((5,11-dimethyl-6-oxo-6,11-dihydro-5H-benzo[e]pyrimido[5,4-b][1,4]diazepin-2-yl)amino)-3-ethoxyphenyl)piperidine-4-carboxamide] | > 1000 nM |  | < 100 nM | B (DC50 = 100-1000 nM) | 100 to 1000 nM | C (< 33% degradation) | C (< 33% degradation) | B (33-66% degradation) | A (>66% degradation)
9 | CCOc1cc(N2CCC(C(=O)N3CCC(N4CCN(C(=O)O[C@H]5CC[C@H](Nc6cc(-n7nc(C(F)(F)F)c8c7CC(C)(C)CC8=O)ccc6C(N)=O)CC5)CC4)CC3)CC2)ccc1Nc1ncc2c(n1)N(C)c1ccccc1C(=O)N2C [Compound 125, (1R,4R)-4-((2-carbamoyl-5-(6,6-dimethyl-4-oxo-3-(trifluoromethyl)-4,5,6,7-tetrahydro-1H-indazol-1-yl)phenyl)amino)cyclohexyl 4-(1-(1-(4-((5,11-dimethyl-6-oxo-6,11-dihydro-5H-benzo[e]pyrimido[5,4-b][1,4]diazepin-2-yl)amino)-3-ethoxyphenyl)piperidine-4-carbonyl)piperidin-4-yl)piperazine-1-carboxylate] | > 1000 nM | > 1000 nM | > 1000 nM |  |  |  |  |  | 
10 | CCOc1cc(N2CCC(C(=O)N3CCC(CN4CCN(C(=O)c5ccc(-n6c(O)nnc6-c6cc(C(C)C)c(O)cc6O)cc5)CC4)CC3)CC2)ccc1Nc1ncc2c(n1)N(C)c1ccccc1C(=O)N2C [Compound 126, 2-((4-(4-(4-((4-(4-(3-(2,4-dihydroxy-5-isopropylphenyl)-5-hydroxy-4H-1,2,4-triazol-4-yl)benzoyl)piperazin-1-yl)methyl)piperidine-1-carbonyl)piperidin-1-yl)-2-ethoxyphenyl)amino)-5,11-dimethyl-5,11-dihydro-6H-benzo[e]pyrimido[5,4-b][1,4]diazepin-6-one] | 100 to 1000 nM | 100 to 1000 nM | < 100 nM |  |  |  |  |  | 
